According to patent US4269827A, “Process and composition for reducing blood pressure” (The Massachusetts General Hospital, priority 1980, dated 1981):
Where “and” joins values, the source holds several entries; their conditions need not be identical. Equal values may be shown once. Read-outs that look alike come from different tables or passages of the source. No end group written: not given here.

Assays:
renin [1] = molecular target: T1, renin (Homo sapiens, UniProt P00797); conditions: octapeptides with changed cleavage site; read-out: binding constants; cited from earlier work
T1 sequence (P00797 67-406): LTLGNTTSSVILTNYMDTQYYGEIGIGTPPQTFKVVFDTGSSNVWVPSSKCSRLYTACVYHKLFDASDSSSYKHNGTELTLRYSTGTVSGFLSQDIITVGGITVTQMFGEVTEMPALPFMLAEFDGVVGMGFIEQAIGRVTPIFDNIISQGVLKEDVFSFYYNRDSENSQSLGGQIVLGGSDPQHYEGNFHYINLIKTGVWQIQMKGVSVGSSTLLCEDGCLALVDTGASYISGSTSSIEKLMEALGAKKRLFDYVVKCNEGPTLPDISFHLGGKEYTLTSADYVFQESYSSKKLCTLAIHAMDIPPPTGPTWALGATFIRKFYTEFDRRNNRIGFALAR

renin [2] = molecular target: T1, renin; assay: In vitro inhibition of renin, inhibitor constant (Ki) with tetradecapeptide substrate, angiotensin I radioimmunoassay; format: biochemical; conditions: pH 7.4, read-out: inhibitory constant (Ki)
Protocol: The peptide being tested is dissolved in 0.01 N HCl and the pH adjusted to pH 7.5 to obtain high concentrations of peptide. The peptide solution is diluted further to appropriate concentrations with 0.1 M Tris HCL-albumin.
First, to determine Km renin (0.006 Goldblatt unit/ml) is incubated for 2 hrs. at 37° with incremental concentrations of Tetradecapeptide substrate varying between 3 and 108 μM in a volume of 160 μl at pH 7.5 in 0.1 M Tris HCl containing 0.5% albumin. The release of angiotensin I is determined by radioimmunoassay, Haber et al., J. Clin. Endocrinol. […] The cross-reaction of the tetradecapeptide with antibody is about 1% and less than 0.5% with the renin inhibitors both before and after exposure to renin.
The inhibitor constant is calculated as previously described, Poulsen et al., Scand. […] No. 132, 1, (1973), from a weighted least-squares fit of a Lineweaver-Burk plot. Each point is given a weight proportional to the initial velocity, Dowd et al, J. Biol. Chem. 240, 863, (1965).
The tetradecapeptide is a renin substrate releasing angiotensin I after cleavage between leucyl residues at positions 10 and 11.
Specific antibody is used to measure angiotensin I release from the decapeptide.
The rate of cleavage between renin and decapeptide will therefore be given by Dixon and Webb, Enzymes, New York, N.Y., Academic (1964), [formula] […]

plasma renin activity = molecular target: T2, plasma renin activity (Homo sapiens, UniProt P00797); assay: In vitro inhibition of plasma renin activity in pooled human plasma; format: biochemical; conditions: peptide in saline (1 mM) added to pooled human plasma; read-out: 50% inhibition of plasma renin activity (converted)
T2 construct: added to pooled human plasma having a plasma renin activity; from tissue; host or cells: pooled human plasma
T2 sequence (P00797 67-406): T1 sequence (P00797 67-406)
Protocol: The mixture is incubated for 45 min at 37° and then cooled to 0°. Complementary amounts of plasma are then added as 20 μl of a plasma dilution in 0.1 M Tris HCl (pH 7.5) containing 0.5% albumin to give the same amount of plasma protein in all tubes. Tracer and antibody (1000 μl) are then added following the radioimmunoassay procedure described by Poulsen et al, J. Clin. Endocrinol. Metab. 39, 816, (1974). Data for the standard curve is collected in the same medium kept at 4°. To determine Ki parallel series of experiments are performed in which the 10 μl Tris buffer is replaced with 10 μl of a solution containing between 2-100 μM inhibitor, respectively.
The inhibitory effect of the decapeptide in human plasma was determined as follows: human blood was drawn in ice cold tubes containing EDTA as anticoagulent and the plasma was immediately separated at 4° C. […] Substrate concentration was determined by measuring angiotensin I concentration by radioimmunoassay after incubation of plasma diluted 1:10 in the phosphate albumin buffer (pH 7.4) with 10 µl of human renin solution (0.006 GU/ml) for 1, 2, 3 and 4 hrs in order to convert renin substrate completely to angiotensin I. EDTA, BAL (2,3-dimercapto-1-propanol) and 8-hydroxyquinoline were added as angiotensinase inhibitors, Haber et al, J. Clin. Endocrinol. […]

For Leu-Phe, the Ki (renin [1]) is given as 4 µM.
For Leu-Tyr, the Ki (renin [1]) is listed as 12 µM.
For “PHPFHFFVYK [I, Pro-His-Pro-Phe-His-Phe-Phe-Val-Tyr-Lys]”, the Ki (renin [2]) was 2 µM and the IC50 (plasma renin activity) was 45 µM and 44.7 µM.
For Phe-Phe, the Ki (renin [1]) is given as 1 µM.
